The target of one experiment is T1, 5α reductase (5αR) (Canis lupus familiaris, UniProt A0A8I3NQ64).
T1 construct: raw extract of dog prostate; from tissue; host or cells: dog prostate, raw extract
T1 sequence (A0A8I3NQ64 1-254): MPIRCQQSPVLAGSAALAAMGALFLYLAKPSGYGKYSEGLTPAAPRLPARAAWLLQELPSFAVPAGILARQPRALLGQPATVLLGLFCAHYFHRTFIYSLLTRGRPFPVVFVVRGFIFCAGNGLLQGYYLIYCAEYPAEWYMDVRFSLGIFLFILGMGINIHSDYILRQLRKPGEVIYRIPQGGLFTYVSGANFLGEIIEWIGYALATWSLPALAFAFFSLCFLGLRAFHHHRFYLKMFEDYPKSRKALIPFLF
Description: Inhibitor effect on 5α reductase of dog prostate extract (radio-chemical method). Format: biochemical. Particulars: 0.1 mM. The text has this:
It is known that enzymes of the type 5α reductase (5αR) transform testosterone into 17β-hydrosy-5α-androstan-3-one or […]. This reaction is crucial in the action of androgens. These enzymes are present in the keratinocytes of the epidermis, in the fibroblasts of the dermis, and in the sebaccous glands in particular.
Solutions of the product were created at five times the final concentration used in the reaction, in a citrate-phosphate buffer at 0.1 M and pH=5.6 (buffer used in the 5αR reaction). The 5αR reference inhibitor was finasteride (Chibro-Prosacar®, in 5 mg tablets), and tested at the concentration of 500 μg/ml after dilution in the citrate-phosphate buffer at 0.1 M.
The enzymatic extract used was a raw extract of dog prostate prepared in a tris buffer of 0.1 M/sucrose 20%, pH=7.5. The sample was calibrated in such a way as to transform approximately 0.1 pmole of testosterone with 50 μl of extract (being an arbitrary unit of the enzyme).
The mixtures were incubated for 4 hours at 37° C., then the testosterone and the derivatives formed were extracted by 500 μl of dichloromethane. The fraction of dichloromethane was drawn off, dried under a nitrogen flow, and chromatographed on silica in a dichloromethane/ethyl acetate/methanol system (proportions 85:15:3). The plates obtained were autoradiographed on Kodak MP® films.
The evaluation of the quantity of testosterone transformed was carried out after sectioning the products formed and counting them in liquid scintillation.

In the next experiment the test system is Propionibacterium acnes. Put plainly: microbe, parasite or virus in culture. Format: cell-based. Particulars: Cutibacterium acnes, 48 h, read-out: Factor of increase of the quantity of P. acnes. The procedure: (§1) Second In Vitro Test Establishing an Effect on Pathogenic and Non-pathogenic Flora
(§2) The effects of an oligosaccharide of a degree of polymerisation close to 10 according to the said first method, and of a chelate of this oligosaccharide+Zn, were evaluated on the non-pathogenic strain Micrococcus kristinae, the pathogenic strain Staphylococcus aureus, and the pathogenic strain Propionibacterium acnes. This latter strain is particularly involved in the irritations occurring in the course of cutaneous acne infections.
(§3) The bacteria are cultured in a saline medium (5.6 g/l of NaCl 2.812 g/l of KH2 PO4), containing pancreatic peptone (5.625 g/l) and extracts of heart/brain (9.843 g/l). The strains M. kristinae and S. aureus are cultured in an aerobic medium, and the strain P. acnes is cultured in an anaerobic medium, either in the presence of 5 g/l of glucose (traditional carbonaceous source) or in the presence of a product according to the invention (oligosaccharide of degree of polymerisation close to 10 alone, or this oligosaccharide forming a chelate with zinc), or in the presence of the medium alone (control cultures). The quantity of bacteria being cultured is evaluated after 48 hours of culturing by turbidimetry at 750 nm.

Another experiment has as its system Staphylococcus aureus. Put plainly: microbe, parasite or virus in culture. Particulars: 48 h, read-out: Factor of increase of the quantity of S. aureus. The class given is cell-based. The procedure:
as §1, §2, §3

The next experiment relates to Micrococcus kristinae. Description: microbe, parasite or virus in culture. Particulars: Rothia kristinae, 48 h, read-out: Factor of increase of the quantity of M. kristinae. The class given is cell-based. How it is done:
as §1, §2, §3

Molecules are shown by their SMILES. Values joined by “and” are separate entries in the source; they are usually repeats but may differ in a detail not shown here. Equal entries are not always repeated.

For `CC(C)(C)NC(=O)[C@H]1CC[C@H]2[C@@H]3CC[C@H]4NC(=O)C=C[C@]4(C)[C@H]3CC[C@]12C` [finasteride], on 5α reductase (5αR), the “Mean (cpm total)” value was determined as 1080 cpm, the “Mean e - T” value was 647 cpm and the inhibition at 100 µM worked out at 85%. On 5α reductase (5αR) (listed as F), the “cpm ASD” value is 880 cpm and 748 cpm and 647 cpm; the “cpm DHT” value is 343 cpm and 262 cpm and 359 cpm; the cpm total was 1223 cpm and 1010 cpm and 1006 cpm. Moreover, the activity at 100 µM on 5α reductase (5αR) (pH 5.6, enzyme control = 100) came to 15%.
`O=C[C@H](O)[C@@H](O)[C@H](O)[C@H](O)CO` [glucose]: the fold induction at 5000 µg/mL with Propionibacterium acnes came out at 5.2; in the experiment with Staphylococcus aureus it was 1.6; with Micrococcus kristinae, 2.2.

The record behind these values is patent publication US6207438A, “Method for preparing a product in particular for preventing and curing skin diseases, and resulting product” (priority 1998, dated 2001).
